Reference: ChEMBL document CHEMBL4842359, “1,3-Diarylpyrazolyl-acylsulfonamides as Potent Anti-tuberculosis Agents Targeting Cell Wall Biosynthesis in Mycobacterium tuberculosis” (J Med Chem, 2021)
≈ marks a conversion by molar mass, not a printed value.

Columns and labels:
[1] = Thermodynamic solubility of compound at pH 7.4 aqueous phosphate buffer
[2] = Lipophilicity, logD of the compound at pH 7.4 by HPLC-DAD analysis; assay type: physicochemical; details: buffer
[3] = Metabolic stability in human liver microsomes assessed as compound remaining at 1 uM by LC-MS/MS analysis; assay type: ADME, Microsome; details: for Stabilty: microsomes, 1 µM
[4] = Metabolic stability in rat liver microsomes assessed as compound remaining at 1 uM by LC-MS/MS analysis; assay type: ADME, Microsome; details: for Stabilty: microsomes, 1 µM
[5] = Metabolic stability in mouse liver microsomes assessed as compound remaining at 1 uM by LC-MS/MS analysis; assay type: ADME, Microsome; details: for Stabilty: microsomes, 1 µM
[6] = Unbound clearance in iv dosed C57BL/6 mouse measured up to 24 hrs by LC-MS/MS analysis; assay type: ADME, organism-based; details: in vivo
[7] = AUC (0 to t) in iv dosed C57BL/6 mouse measured up to 24 hrs by LC-MS/MS analysis; assay type: ADME, organism-based; parameters: time <=24; details: in vivo
[8] = Dru metabolism in iv dosed mouse assessed as metabolite in blood; assay type: ADME, organism-based; details: in vivo
[9] = Dru metabolism in iv dosed mouse assessed as metabolite in urine; assay type: ADME, organism-based; details: in vivo
[10] = Dru metabolism in iv dosed mouse assessed as metabolite in feces; assay type: ADME, organism-based; details: in vivo
[11] = Terminal half life in iv dosed C57BL/6 mouse measured up to 24 hrs by LC-MS/MS analysis; assay type: ADME, organism-based; details: in vivo
[12] = Volume of distribution in iv dosed C57BL/6 mouse measured up to 24 hrs by LC-MS/MS analysis; assay type: ADME, organism-based; details: in vivo
[13] = test system: Mycobacterium tuberculosis; test: microbe, parasite or virus in culture; details: H37RvMA
Description: Antimycobacterial activity against drug-susceptible Mycobacterium tuberculosis H37RvMA by MIGIT method

[14] = test system: Mycobacterium tuberculosis; test: microbe, parasite or virus in culture; details: S2371
Description: Antimycobacterial activity against drug-susceptible Mycobacterium tuberculosis S2371 by MIGIT method

[15] = test system: Mycobacterium tuberculosis; test: microbe, parasite or virus in culture; details: S1125
Description: Antimycobacterial activity against drug-susceptible Mycobacterium tuberculosis S1125 by MIGIT method

[16] = Plasma protein binding in human assessed as unbound fraction at 5 uM by LC-MS/MS analysis; assay type: ADME, cell-free
[17] = Oral bioavailability in mouse; assay type: ADME, organism-based; details: in vivo
[18] = test system: Mycobacterium tuberculosis; test: animal or person; assay type: functional; details: time 7 day
[19] = Toxicity in BALB/c mouse assessed as tolerability at 200 mg/kg, po once a day treatment initiated 7 days after infection for 12 consecutive days; assay type: organism-based; details: in vivo, 168 h, time 7 day
[20] = test system: Mycobacterium tuberculosis; test: microbe, parasite or virus in culture; details: H37Rv, 336 h
Description: Antimycobacterial activity against Mycobacterium tuberculosis H37Rv in presence of middlebrook 7H9/glucose/BSA/tyloxapol medium measured after 14 days by bioluminescence reporter assay

[21] = test system: Mycobacterium tuberculosis; test: microbe, parasite or virus in culture; details: H37RvMA, 336 h
Description: Antimycobacterial activity against Mycobacterium tuberculosis H37RvMA in presence of middlebrook 7H9/glucose/BSA/tyloxapol medium measured for 2 weeks by bioluminescence reporter assay

[22] = test system: Mycobacterium tuberculosis; test: microbe, parasite or virus in culture; details: 336 h
Description: Antimycobacterial activity against Mycobacterium tuberculosis delta cyd in presence of middlebrook 7H9/glucose/BSA/tyloxapol medium measured for 2 weeks by bioluminescence reporter assay

[23] = test system: Mycobacterium tuberculosis; assay type: functional; details: H37Rv
HepG2 [24] = test: Cytotoxicity against human HepG2 cells under glucose containing medium; assay type: cell-based
HepG2 [25] = test: Cytotoxicity against human HepG2 cells under galactose containing medium; assay type: cell-based
[26] = liver microsomes, read-out: Stabilty

Compound | solubility thermodynamic [1] [µM] | logD [2] | Stabilty [3] [%] | Stabilty [4] [%] | Stabilty [5] [%] | CL free [6] [mL/min/kg] | AUCt [7] [µmol·min/L] | Vd ([12]; C57BL/6, mouse, read-out: Vd) [L/kg] | further results
CS(=O)(=O)NC(=O)NCc1cn(-c2ccc(Cl)cc2)nc1-c1ccncc1 | 150 (≈ 60.9 µg/mL) | 0.81 | 99 | 98 | 91 | 4878 | 29 |  | Drug metabolism [8]: Metabolite_Notdetected; Drug metabolism [9]: Metabolite_Notdetected; Drug metabolism [10]: Metabolite_Notdetected
CS(=O)(=O)NC(=O)CCc1cn(-c2ccc(Br)cc2)nc1-c1ccncc1 | 185 (≈ 83.1 µg/mL) | 0.93 | 85 | 94 | 79 | > 20000 | 15 | 0.1 | beta t1/2 ([11]; mouse, 24 h): 1.3 h; MIC [13]: ≤ 15 µM; MIC [14]: 30 µM (≈ 13.5 µg/mL); MIC [15]: 15 µM (≈ 6.74 µg/mL)
CS(=O)(=O)NC(=O)CCc1cn(-c2ccc(Cl)cc2)nc1-c1ccc(Cl)cc1 | 100 (≈ 43.8 µg/mL) |  |  |  |  | 111 | 4883 | 1.2 | logD ([2]; read-out: logD): 2; remaining at 1 µM [3, 26]: 98%; remaining at 1 µM [4, 26]: > 99%; remaining at 1 µM [5, 26]: 87%; fraction unbound at 5 µM [16]: 0.023; half-life ([11]; C57BL/6, mouse, read-out: beta t1/2 (converted)): 3.6 h; bioavailability [17]: > 95%; MIC at 200 mg/kg ([18]; Mycobacterium tuberculosis, Erdman, in Mus musculus, po, 168 h): 9.1 µM (≈ 3.99 µg/mL); fIC50 ([18]; dose 200 mg/kg): 11 µM; Activity [19]: Non-Toxic; MIC [20]: 4.7 µM (≈ 2.06 µg/mL); MIC [21]: 4 µM (≈ 1.75 µg/mL); MIC [22]: 4 µM (≈ 1.75 µg/mL)
CS(=O)(=O)NC(=O)CCc1cn(-c2ccc(Br)cc2)nc1-c1ccc(Cl)cc1 | 170 (≈ 82.1 µg/mL) | 2.4 | 90 | 74 | 71 | 295 | 3527 |  | IC90 [23]: 6.25 µM; IC50 (HepG2 [24]): > 50 µM; IC50 (HepG2 [25]): > 50 µM; Vd ([12]; mouse, 24 h): 0.2 L/kg
